Measured values from the supplement of paper PMC10307832.

What was measured:
Assay in all cases: relative viability (nuclei count vs DMSO), 5 days (fraction); higher = more cells survive
[1] = compound: CCN(CC)CCNC(=O)c1c(C)[nH]c(/C=C2\C(=O)Nc3ccc(F)cc32)c1C [Sunitinib] + Nc1nc2[nH]cc(CCc3ccc(C(=O)N[C@@H](CCC(=O)O)C(=O)O)cc3)c2c(=O)[nH]1 [Pemetrexed] (partner 0.2 µM)
How it was run: (§1)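 The day after seeding in 1536-well plates, lung cancer cell lines were treated by pin tool with a single drug, or with a fixed anchor-drug dose together with five library-drug doses (not always all listed) in √10 steps. After 5 days, a combined fix-and-stain solution (final 0.05% Triton X-100, 1% formaldehyde, 1 ug/ml Hoechst) was added. Nuclei counted on 4× images gave relative viability as treated counts over vehicle counts, reported as the median of duplicate plates.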

[2] = compound: CCN(CC)CCNC(=O)c1c(C)[nH]c(/C=C2\C(=O)Nc3ccc(F)cc32)c1C [Sunitinib] + CS(=O)(=O)CCNCc1ccc(-c2ccc3ncnc(Nc4ccc(OCc5cccc(F)c5)c(Cl)c4)c3c2)o1 [Lapatinib] (partner 2 µM)
How it was run: as §1

[3] = compound: CCN(CC)CCNC(=O)c1c(C)[nH]c(/C=C2\C(=O)Nc3ccc(F)cc32)c1C [Sunitinib] + Cc1nc(Nc2ncc(C(=O)Nc3c(C)cccc3Cl)s2)cc(N2CCN(CCO)CC2)n1 [Dasatinib] (partner 0.075 µM)
How it was run: as §1

[4] = compound: CCN(CC)CCNC(=O)c1c(C)[nH]c(/C=C2\C(=O)Nc3ccc(F)cc32)c1C [Sunitinib] + C[C@@H](Oc1cc(-c2cnn(C3CCNCC3)c2)cnc1N)c1c(Cl)ccc(F)c1Cl [Crizotinib] (partner 1 µM)
How it was run: as §1

Row | Cell Line | relative viability ([1]; first compound 0.02 µM) | relative viability ([1]; first compound 0.06325 µM) | relative viability ([1]; first compound 0.2 µM) | relative viability ([1]; first compound 0.6325 µM) | relative viability ([1]; first compound 2 µM) | relative viability ([2]; first compound 0.02 µM) | relative viability ([2]; first compound 0.06325 µM) | relative viability ([2]; first compound 0.2 µM) | relative viability ([2]; first compound 0.6325 µM) | relative viability ([2]; first compound 2 µM) | relative viability ([3]; first compound 0.02 µM) | relative viability ([3]; first compound 0.06325 µM) | relative viability ([3]; first compound 0.2 µM) | relative viability ([3]; first compound 0.6325 µM) | relative viability ([3]; first compound 2 µM) | relative viability ([4]; first compound 0.02 µM) | relative viability ([4]; first compound 0.06325 µM) | relative viability ([4]; first compound 0.2 µM) | relative viability ([4]; first compound 0.6325 µM) | relative viability ([4]; first compound 2 µM)
1 | NCI-H1437 | 0.336 | 0.329 | 0.345 | 0.309 | 0.322 | 0.789 | 1.1 | 0.928 | 0.793 | 1.03 | 0.489 | 0.418 | 0.478 | 0.39 | 0.412 | 0.979 | 0.959 | 1.09 | 0.909 | 0.899
2 | NCI-H2023 | 0.235 | 0.307 | 0.265 | 0.301 | 0.222 | 0.912 | 1.09 | 0.998 | 0.814 | 0.91 | 0.459 | 0.582 | 0.628 | 0.707 | 0.642 | 0.628 | 0.67 | 0.792 | 0.654 | 0.667
3 | LK-2 | 0.266 | 0.335 | 0.31 | 0.254 | 0.292 | 0.773 |  | 1.15 | 0.939 | 0.866 | 0.223 | 0.27 | 0.324 | 0.339 | 0.297 | 0.203 | 0.265 | 0.203 | 0.23 | 0.231
4 | RERF-LC-KJ | 0.472 | 0.483 | 0.485 | 0.418 | 0.49 | 0.887 | 0.844 |  |  | 0.828 | 0.768 | 0.897 | 0.832 | 0.821 | 0.847 | 0.802 | 0.838 | 0.934 | 0.786 | 0.855
5 | HCC-44 | 0.615 | 0.607 | 0.676 | 0.68 | 0.692 | 1.06 | 1 | 1.09 | 0.985 |  |  |  |  |  |  | 0.874 | 0.784 | 0.937 | 0.859 | 0.774
6 | IA-LM |  |  |  |  |  | 0.674 | 0.917 | 0.804 | 0.81 | 0.947 |  |  |  |  |  | 0.779 | 0.774 | 0.982 | 0.926 | 1.04
7 | NCI-H441 | 0.263 | 0.253 | 0.278 | 0.235 | 0.257 |  |  |  |  |  | 0.545 | 0.684 | 0.714 | 0.763 | 0.658 | 0.686 | 0.802 | 0.831 | 0.858 | 
8 | ABC-1 |  |  |  |  |  | 1.18 | 1.19 | 1.34 | 1 | 1.19 | 0.561 | 0.609 | 0.495 | 0.513 | 0.49 | 1.08 | 1.12 | 1.03 | 1.03 | 0.739
9 | NCI-H1648 | 0.897 | 0.737 | 0.898 | 0.704 | 0.835 |  |  |  |  |  |  |  |  |  |  |  |  |  |  | 
10 | SW 900 | 0.466 | 0.495 | 0.491 | 0.5 | 0.501 |  |  |  |  |  | 0.418 | 0.722 | 0.634 | 0.717 | 0.605 |  |  |  |  | 
11 | NCI-H727 |  |  |  |  |  | 0.88 | 0.887 | 1.36 | 0.937 | 0.781 | 0.343 | 0.432 | 0.472 | 0.404 | 0.275 | 0.724 | 0.832 | 0.808 | 0.926 | 0.738
12 | NCI-H1395 | 0.845 | 0.937 | 0.935 | 1.1 | 0.91 | 0.947 | 1.17 | 1.07 | 1.16 | 1 | 0.394 | 0.463 | 0.453 | 0.406 | 0.266 |  |  |  |  | 
13 | NCI-H522 | 0.861 | 1.12 | 0.915 | 0.858 | 0.999 |  |  |  |  |  | 0.731 | 1.05 | 0.899 | 1.04 | 0.923 |  |  |  |  | 
14 | A549 |  |  |  |  |  | 1.03 |  | 1.21 | 1.03 |  |  |  |  |  |  | 0.722 | 0.816 |  | 0.906 | 0.711
15 | LCLC-103H | 0.452 | 0.443 | 0.487 | 0.442 | 0.445 |  |  |  |  |  | 0.428 | 0.527 | 0.501 | 0.462 | 0.589 | 1.01 | 1.09 | 1.17 | 1.05 | 1.06
16 | NCI-H1299 |  |  |  |  |  | 0.956 | 0.988 | 0.992 | 0.932 | 0.953 |  |  |  |  |  | 0.923 | 0.965 | 0.991 |  | 
17 | Calu-6 |  |  |  |  |  | 1.02 | 1.16 | 1.28 | 1.18 | 1.19 |  |  |  |  |  | 0.711 | 0.772 | 0.852 | 0.932 | 0.79
18 | ChaGo-K-1 | 0.263 | 0.268 | 0.258 | 0.255 | 0.258 |  |  |  |  |  | 0.529 | 0.753 | 0.575 | 0.571 | 0.598 | 1.06 | 1.14 | 1.34 | 1.22 | 1.12
19 | NCI-H1703 |  |  |  |  |  | 0.633 | 0.264 | 0.318 | 0.245 | 0.284 |  |  |  |  |  | 0.39 | 0.206 | 0.238 | 0.17 | 0.225
